This is an account of results in ChEMBL document CHEMBL2073877, “Functional characterization of the basolateral rat liver organic anion transporting polypeptide” (Hepatology, 1994).

In data set [1] the target is T1, Solute carrier organic anion transporter family member 1A1 (Rattus norvegicus, UniProt P46720).
T1 sequence (P46720 whole entry): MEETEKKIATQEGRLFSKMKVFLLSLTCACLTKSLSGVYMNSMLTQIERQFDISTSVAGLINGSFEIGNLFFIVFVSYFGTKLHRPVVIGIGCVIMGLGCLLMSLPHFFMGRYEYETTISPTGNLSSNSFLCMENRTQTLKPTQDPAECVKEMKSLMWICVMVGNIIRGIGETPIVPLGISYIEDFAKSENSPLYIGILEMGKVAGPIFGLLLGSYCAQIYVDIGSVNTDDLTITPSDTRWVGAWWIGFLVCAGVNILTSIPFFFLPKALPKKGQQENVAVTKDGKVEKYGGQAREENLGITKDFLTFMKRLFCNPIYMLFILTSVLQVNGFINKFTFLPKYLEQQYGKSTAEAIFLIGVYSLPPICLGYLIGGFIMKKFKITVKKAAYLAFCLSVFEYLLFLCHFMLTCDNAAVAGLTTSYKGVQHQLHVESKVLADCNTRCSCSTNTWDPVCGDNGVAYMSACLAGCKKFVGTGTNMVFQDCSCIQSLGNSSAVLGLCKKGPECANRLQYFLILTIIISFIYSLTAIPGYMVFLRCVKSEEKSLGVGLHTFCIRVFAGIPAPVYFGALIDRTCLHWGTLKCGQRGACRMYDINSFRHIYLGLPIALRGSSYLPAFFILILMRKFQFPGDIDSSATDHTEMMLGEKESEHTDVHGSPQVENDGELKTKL
Put plainly: TP_TRANSPORTER: inhibition of BSP uptake (BSP: 2 uM, DIDS: 100 uM) in Xenopus laevis oocytes. It counts as functional, cell-based, Oocyte. As to conditions: probe BSP.

In data set [2] the target is T1, Solute carrier organic anion transporter family member 1A1. The experiment in a line: TP_TRANSPORTER: inhibition of BSP uptake (BSP: 2 uM, ICG: 100 uM) in Xenopus laevis oocytes. It counts as functional, cell-based, Oocyte. The following applies: probe BSP, read-out: Activity.
Data set [3] has the same target. Put plainly: TP_TRANSPORTER: inhibition of BSP uptake (BSP: 2 uM, UDCA: 100 uM) in Xenopus laevis oocytes. It counts as functional, cell-based. The following applies: oocyte.
Data set [4] has the same target. Put plainly: TP_TRANSPORTER: inhibition of Taurocholate uptake (Taurochorate: 20 uM, UDCA: 200 uM) in Xenopus laevis oocytes. It counts as functional, cell-based. The following applies: oocyte.
The target is the same in data set [5]. The experiment in a line: TP_TRANSPORTER: inhibition of BSP uptake (BSP: 2 uM, GCDCA: 100 uM) in Xenopus laevis oocytes. It counts as functional, cell-based. As to conditions: oocyte.
Data set [6] has the same target. The experiment in a line: TP_TRANSPORTER: inhibition of Taurocholate uptake (Taurochorate: 20 uM, GCDCA: 200 uM) in Xenopus laevis oocytes. It counts as functional, cell-based. As to conditions: oocyte.
The target is the same in data set [7]. The experiment in a line: TP_TRANSPORTER: inhibition of BSP uptake (BSP: 2 uM, Probenecid: 1000 uM) in Xenopus laevis oocytes. It counts as functional, cell-based, Oocyte. The following applies: probe BSP.
The target is the same in data set [8]. The experiment in a line: TP_TRANSPORTER: inhibition of BSP uptake (BSP: 1 uM, Bilirubin: 10 uM) in Xenopus laevis oocytes. It counts as functional, cell-based, Oocyte. The following applies: probe BSP.
The target is the same in data set [9]. The experiment in a line: TP_TRANSPORTER: inhibition of Taurocholate uptake (Taurochorate: 20 uM, GC: 200 uM) in Xenopus laevis oocytes. It counts as functional, cell-based. As to conditions: oocyte.
The target is the same in data set [10]. The experiment in a line: TP_TRANSPORTER: inhibition of BSP uptake (BSP: 2 uM, GC: 100 uM) in Xenopus laevis oocytes. The following applies: oocyte. It counts as functional, cell-based.
Data set [11] has the same target. Put plainly: TP_TRANSPORTER: inhibition of BSP uptake (BSP: 2 uM, TDCA: 100 uM) in Xenopus laevis oocytes. It counts as functional, cell-based. The following applies: oocyte.
For data set [12] the target is unchanged. The experiment in a line: TP_TRANSPORTER: inhibition of Taurocholate uptake (Taurochorate: 20 uM, TDCA: 200 uM) in Xenopus laevis oocytes. It counts as functional, cell-based. The following applies: oocyte.
For data set [13] the target is unchanged. The experiment in a line: TP_TRANSPORTER: inhibition of BSP uptake (BSP: 2 uM, DCA: 100 uM) in Xenopus laevis oocytes. It counts as functional, cell-based. The following applies: oocyte.
The target is the same in data set [14]. The experiment in a line: TP_TRANSPORTER: inhibition of Taurocholate uptake (Taurochorate: 20 uM, DCA: 200 uM) in Xenopus laevis oocytes. It counts as functional, cell-based. As to conditions: oocyte.
The target is the same in data set [15]. The experiment in a line: TP_TRANSPORTER: inhibition of BSP uptake (BSP: 2 uM, GDCA: 100 uM) in Xenopus laevis oocytes. It counts as functional, cell-based. The following applies: oocyte.
Data set [16] shares this target. The experiment in a line: TP_TRANSPORTER: inhibition of Taurocholate uptake (Taurochorate: 20 uM, GDCA: 200 uM) in Xenopus laevis oocytes. It counts as functional, cell-based. As to conditions: oocyte.
Data set [17] shares this target. Put plainly: TP_TRANSPORTER: inhibition of Taurocholate uptake (Taurochorate: 20 uM, CDCA: 200 uM) in Xenopus laevis oocytes. It counts as functional, cell-based. As to conditions: oocyte.
Data set [18] shares this target. The experiment in a line: TP_TRANSPORTER: inhibition of BSP uptake (BSP: 2 uM, CDCA: 100 uM) in Xenopus laevis oocytes. It counts as functional, cell-based. As to conditions: oocyte.
The target is the same in data set [19]. The experiment in a line: TP_TRANSPORTER: inhibition of BSP uptake (BSP: 2 uM, TCDC: 100 uM) in Xenopus laevis oocytes. It counts as functional, cell-based. The following applies: oocyte.
For data set [20] the target is unchanged. The experiment in a line: TP_TRANSPORTER: inhibition of Taurocholate uptake (Taurochorate: 20 uM, TCDC: 200 uM) in Xenopus laevis oocytes. It counts as functional, cell-based. The following applies: oocyte.

Take `O=S(=O)(O)c1cc(N=C=S)ccc1/C=C/c1ccc(NC=S)cc1S(=O)(=O)O`: the inhibition at 100 µM in [1] worked out at 52%. Consider `CC1(C)C(/C=C/C=C/C=C/C=C2\N(CCCCS(=O)(=O)O)c3ccc4ccccc4c3C2(C)C)=[N+](CCCCS(=O)(=O)[O-])c2ccc3ccccc3c21` [INDOCYANINE GREEN], for which the inhibition at 100 µM in data set [2] was 81%. For `C[C@H](CCC(=O)O)[C@H]1CC[C@H]2[C@@H]3[C@@H](O)C[C@@H]4C[C@H](O)CC[C@]4(C)[C@H]3CC[C@]12C` [URSODIOL], the Activity result in data set [3] is “inhibitor [(at a rough estimate) 15 % of control]”; in data set [4], “inhibitor [(at a rough estimate) 10 % of control]”. As for `C[C@H](CCC(=O)NCC(=O)O)[C@H]1CC[C@H]2[C@@H]3[C@H](O)C[C@@H]4C[C@H](O)CC[C@]4(C)[C@H]3CC[C@]12C` [GLYCOCHENODEOXYCHOLATE], the Activity result in [5] is “inhibitor [(at a rough estimate) 10 % of control]”; in data set [6], “inhibitor [(at a rough estimate) 5 % of control]”. In the case of `CCCN(CCC)S(=O)(=O)c1ccc(C(=O)O)cc1` [PROBENECID], the inhibition at 1000 µM in [7] was determined as 74%. Take `C=CC1=C(C)/C(=C/c2[nH]c(Cc3[nH]c(/C=C4\NC(=O)C(C)=C4C=C)c(C)c3CCC(=O)O)c(CCC(=O)O)c2C)NC1=O` [BILIRUBIN]: the inhibition at 10 µM in data set [8] is 43%.

Take `C[C@H](CCC(=O)NCC(=O)O)[C@H]1CC[C@H]2[C@@H]3[C@H](O)C[C@@H]4C[C@H](O)CC[C@]4(C)[C@H]3C[C@H](O)[C@]12C` [GLYCOCHOLIC ACID]: the Activity entry is “inhibitor [(at a rough estimate) 40 % of control]” in data set [9] and “inhibitor [(at a rough estimate) 45 % of control]” in data set [10].

As for `C[C@H](CCC(=O)NCCS(=O)(=O)O)[C@H]1CC[C@H]2[C@@H]3CC[C@@H]4C[C@H](O)CC[C@]4(C)[C@H]3C[C@H](O)[C@]12C` [TAURODEOXYCHOLIC ACID], the Activity result in [11] is “inhibitor [(at a rough estimate) 10 % of control]”; in data set [12], “inhibitor [(at a rough estimate) 5 % of control]”.

On to `C[C@H](CCC(=O)O)[C@H]1CC[C@H]2[C@@H]3CC[C@@H]4C[C@H](O)CC[C@]4(C)[C@H]3C[C@H](O)[C@]12C` [DEOXYCHOLIC ACID], for which the Activity result in data set [13] is “inhibitor [(at a rough estimate) 15 % of control]”; in data set [14], “inhibitor [(at a rough estimate) 5 % of control]”.

On to `C[C@H](CCC(=O)NCC(=O)O)[C@H]1CC[C@H]2[C@@H]3CC[C@@H]4C[C@H](O)CC[C@]4(C)[C@H]3C[C@H](O)[C@]12C` [GLYCODEOXYCHOLATE], for which the Activity result in data set [15] was “inhibitor [(at a rough estimate) 15 % of control]”; in data set [16], “inhibitor [(at a rough estimate) 10 % of control]”. Take `C[C@H](CCC(=O)O)[C@H]1CC[C@H]2[C@@H]3[C@H](O)C[C@@H]4C[C@H](O)CC[C@]4(C)[C@H]3CC[C@]12C` [CHENODIOL]: the figures for the Activity entry in [17] and in [18] were “inhibitor [(at a rough estimate) 5 % of control]” and “inhibitor [(at a rough estimate) 15 % of control]”, respectively. For `C[C@H](CCC(=O)NCCS(=O)(=O)O)[C@H]1CC[C@H]2[C@@H]3[C@H](O)C[C@@H]4C[C@H](O)CC[C@]4(C)[C@H]3CC[C@]12C` [TAUROCHENODEOXYCHOLATE], the Activity result in [19] and in data set [20] was “inhibitor [(at a rough estimate) 5 % of control]” each time.
